Measurements: patent publication US5843900A (priority 1995, dated 1998)
Square brackets hold non-standard residues; d marks the D form. Peptide text beside a SMILES is read from it. * marks the point of attachment. X21 = CN1CC[C@]23c4c5ccc(OCCCCCCCCCCCC(=O)*)c4O[C@H]2[C@@H](O)CC[C@H]3[C@H]1C5; Hyp = O=C(O)[C@@H]1C[C@@H](O)CN1; dTic = O=C(O)[C@H]1Cc2ccccc2CN1; 2Thi = N[C@@H](Cc1cccs1)C(=O)O; Gly(N-cHex) = O=C(O)CNC1CCCCC1

How the values were obtained:
human BK2 receptor = human BK2 receptor (Homo sapiens, UniProt P30411); experiment: biochemical; type: binding
[1] = tested on: carrageenan induced edema in the rat hind paw; details: in vivo
[2] = tested on: paw licking following formalin injection; details: mouse, in vivo
[3] = tested on: mustard oil induced neurogenic inflammation in the rat hind paw; details: in vivo
[4] = tested on: hypotensive response to bradykinin; experiment: Rat Blood Pressure: hypotensive response to bradykinin; type: in vivo; details: at the dose used in the carrageenan test
Experimental: Male rats were anesthetised with urethane, 1.25 g/kg, and cannulae were placed in the carotid artery and femoral vein for the injection and infusion of compounds and in the femoral artery for the recording of blood pressure. Standard hypotensive responses were obtained to repeated administration of bradykinin, 80 pM. These were repeated in the presence of increasing dose infusions of CP-0840. […] The selectivity of CP-0840 was assessed at a dose of 3 ug/kg/min. […] CP-0840 can be said to be a selective antagonist of bradykinin in vivo in the rat blood pressure assay (FIG. 9).

Chain of human BK2 receptor (P30411 28-391): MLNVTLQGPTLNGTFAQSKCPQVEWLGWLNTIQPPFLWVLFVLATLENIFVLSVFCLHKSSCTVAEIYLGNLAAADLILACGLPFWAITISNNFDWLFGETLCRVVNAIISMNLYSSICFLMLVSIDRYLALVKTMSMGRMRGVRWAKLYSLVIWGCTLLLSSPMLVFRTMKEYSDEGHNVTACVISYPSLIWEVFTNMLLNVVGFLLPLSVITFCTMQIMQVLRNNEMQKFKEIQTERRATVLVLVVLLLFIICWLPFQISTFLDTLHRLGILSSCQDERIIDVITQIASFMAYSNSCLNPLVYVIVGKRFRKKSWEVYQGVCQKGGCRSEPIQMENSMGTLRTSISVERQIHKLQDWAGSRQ

Molecule	IC50 (human BK2 receptor)	also measured
CN1CC[C@]23c4c5ccc(OCCCCCCCCCCCC(=O)N[C@H](CCCNC(=N)N)C(=O)N[C@@H](CCCNC(=N)N)C(=O)N6CCC[C@H]6C(=O)N6C[C@H](O)C[C@H]6C(=O)NCC(=O)N[C@@H](Cc6cccs6)C(=O)N[C@@H](CO)C(=O)N6Cc7ccccc7C[C@@H]6C(=O)N(CC(=O)N[C@@H](CCCNC(=N)N)C(=O)O)C6CCCCC6)c4O[C@H]2[C@@H](O)CC[C@H]3[C@H]1C5 [CP 695]	1.26 nM	
CN1CC[C@]23c4c5ccc(OCCCCCCCCCCCC(=O)NCCCC[C@H](NC(=O)[C@H](N)CCCNC(=N)N)C(=O)N6CCC[C@H]6C(=O)N6C[C@H](O)C[C@H]6C(=O)NCC(=O)N[C@@H](Cc6cccs6)C(=O)N[C@@H](CO)C(=O)N6Cc7ccccc7C[C@@H]6C(=O)N(CC(=O)N[C@@H](CCCNC(=N)N)C(=O)O)C6CCCCC6)c4O[C@H]2[C@@H](O)CC[C@H]3[C@H]1C5 [CP 723] (H-[dR]K(X21)P[Hyp]G[2Thi]S[dTic][Gly(N-cHex)]R-OH)	0.398 nM	
CN1CC[C@]23c4c5ccc(OCCCCCCCCCCCC(=O)NCCCC[C@H](NC(=O)CNC(=O)[C@@H]6C[C@@H](O)CN6C(=O)[C@@H]6CCCN6C(=O)[C@H](CCCNC(=N)N)NC(=O)[C@H](N)CCCNC(=N)N)C(=O)N[C@@H](CO)C(=O)N6Cc7ccccc7C[C@@H]6C(=O)N(CC(=O)N[C@@H](CCCNC(=N)N)C(=O)O)C6CCCCC6)c4O[C@H]2[C@@H](O)CC[C@H]3[C@H]1C5 [CP 831] (H-[dR]RP[Hyp]GK(X21)S[dTic][Gly(N-cHex)]R-OH)	126 nM	
CN1CC[C@]23c4c5ccc(OCc6ccc(C(=O)NCCC(=O)Nc7ccc(CC(=O)N[C@H](CCCNC(=N)N)C(=O)N[C@@H](CCCNC(=N)N)C(=O)N8CCC[C@H]8C(=O)N8C[C@H](O)C[C@H]8C(=O)NCC(=O)N[C@@H](Cc8cccs8)C(=O)N[C@@H](CO)C(=O)N8Cc9ccccc9C[C@@H]8C(=O)N(CC(=O)N[C@@H](CCCNC(=N)N)C(=O)O)C8CCCCC8)cc7)cc6)c4O[C@H]2[C@@H](O)C=C[C@H]3[C@H]1C5 [CP 836]	1.26 nM	
CN1CC[C@]23c4c5ccc(OCCCCCCCCCCCC(=O)NCCCC[C@H](NC(=O)[C@@H]6CCCN6C(=O)[C@H](CCCNC(=N)N)NC(=O)[C@H](N)CCCNC(=N)N)C(=O)NCC(=O)N[C@@H](Cc6cccs6)C(=O)N[C@@H](CO)C(=O)N6Cc7ccccc7C[C@@H]6C(=O)N(CC(=O)N[C@@H](CCCNC(=N)N)C(=O)O)C6CCCCC6)c4O[C@H]2[C@@H](O)CC[C@H]3[C@H]1C5 [CP 841] (H-[dR]RPK(X21)G[2Thi]S[dTic][Gly(N-cHex)]R-OH)	12.6 nM	
CN1CC[C@]23c4c5ccc(OCCCCCCCCCCCCCCC(=O)N[C@H](CCCNC(=N)N)C(=O)N[C@@H](CCCNC(=N)N)C(=O)N6CCC[C@H]6C(=O)N6C[C@H](O)C[C@H]6C(=O)NCC(=O)N[C@@H](Cc6cccs6)C(=O)N[C@@H](CO)C(=O)N6Cc7ccccc7C[C@@H]6C(=O)N(CC(=O)N[C@@H](CCCNC(=N)N)C(=O)O)C6CCCCC6)c4O[C@H]2[C@@H](O)CC[C@H]3[C@H]1C5 [CP 844]	3.16 nM	
CN1CC[C@]23c4c5ccc(OCCCCCCCCCCCC(=O)NCCCC[C@H](NC(=O)[C@H](CCCNC(=N)N)NC(=O)[C@H](N)CCCNC(=N)N)C(=O)N6C[C@H](O)C[C@H]6C(=O)NCC(=O)N[C@@H](Cc6cccs6)C(=O)N[C@@H](CO)C(=O)N6Cc7ccccc7C[C@@H]6C(=O)N(CC(=O)N[C@@H](CCCNC(=N)N)C(=O)O)C6CCCCC6)c4O[C@H]2[C@@H](O)CC[C@H]3[C@H]1C5 [CP 851] (H-[dR]RK(X21)[Hyp]G[2Thi]S[dTic][Gly(N-cHex)]R-OH)	39.8 nM	
CN1CC[C@]23c4c5ccc(OCCCCCCCCCCCC(=O)NCCCC[C@H](NC(=O)[C@@H]6C[C@@H](O)CN6C(=O)[C@@H]6CCCN6C(=O)[C@H](CCCNC(=N)N)NC(=O)[C@H](N)CCCNC(=N)N)C(=O)N[C@@H](Cc6cccs6)C(=O)N[C@@H](CO)C(=O)N6Cc7ccccc7C[C@@H]6C(=O)N(CC(=O)N[C@@H](CCCNC(=N)N)C(=O)O)C6CCCCC6)c4O[C@H]2[C@@H](O)CC[C@H]3[C@H]1C5 [CP 853] (H-[dR]RP[Hyp]K(X21)[2Thi]S[dTic][Gly(N-cHex)]R-OH)	63.1 nM	
CN1CC[C@]23c4c5ccc(OCc6cccc(C(=O)NCCC(=O)Nc7ccc(CC(=O)N[C@H](CCCNC(=N)N)C(=O)N[C@@H](CCCNC(=N)N)C(=O)N8CCC[C@H]8C(=O)N8C[C@H](O)C[C@H]8C(=O)NCC(=O)N[C@@H](Cc8cccs8)C(=O)N[C@@H](CO)C(=O)N8Cc9ccccc9C[C@@H]8C(=O)N(CC(=O)N[C@@H](CCCNC(=N)N)C(=O)O)C8CCCCC8)cc7)c6)c4O[C@H]2[C@@H](O)C=C[C@H]3[C@H]1C5 [CP 862]	1 nM	
CN1CC[C@]23c4c5ccc(O)c4O[C@H]2[C@@H](OCCCCCCCCCCCC(=O)N[C@H](CCCNC(=N)N)C(=O)N[C@@H](CCCNC(=N)N)C(=O)N2CCC[C@H]2C(=O)N2C[C@H](O)C[C@H]2C(=O)NCC(=O)N[C@@H](Cc2cccs2)C(=O)N[C@@H](CO)C(=O)N2Cc4ccccc4C[C@@H]2C(=O)N(CC(=O)N[C@@H](CCCNC(=N)N)C(=O)O)C2CCCCC2)CC[C@H]3[C@H]1C5 [CP 896]	2 nM	
CN1CC[C@]23c4c5ccc(O)c4O[C@H]2[C@@H](OCCCCCC(=O)N[C@H](CCCNC(=N)N)C(=O)N[C@@H](CCCNC(=N)N)C(=O)N2CCC[C@H]2C(=O)N2C[C@H](O)C[C@H]2C(=O)NCC(=O)N[C@@H](Cc2cccs2)C(=O)N[C@@H](CO)C(=O)N2Cc4ccccc4C[C@@H]2C(=O)N(CC(=O)N[C@@H](CCCNC(=N)N)C(=O)O)C2CCCCC2)CC[C@H]3[C@H]1C5 [CP 900]	1.58 nM	
CN1CC[C@]23c4c5ccc(O)c4O[C@H]2[C@@H](OCCCc2cccc(C(=O)N[C@H](CCCNC(=N)N)C(=O)N[C@@H](CCCNC(=N)N)C(=O)N4CCC[C@H]4C(=O)N4C[C@H](O)C[C@H]4C(=O)NCC(=O)N[C@@H](Cc4cccs4)C(=O)N[C@@H](CO)C(=O)N4Cc6ccccc6C[C@@H]4C(=O)N(CC(=O)N[C@@H](CCCNC(=N)N)C(=O)O)C4CCCCC4)c2)C=C[C@H]3[C@H]1C5 [CP 902]	0.398 nM	
CN1CC[C@]23c4c5ccc(O)c4O[C@H]2[C@@H](OCCCc2ccc(C(=O)N[C@H](CCCNC(=N)N)C(=O)N[C@@H](CCCNC(=N)N)C(=O)N4CCC[C@H]4C(=O)N4C[C@H](O)C[C@H]4C(=O)NCC(=O)N[C@@H](Cc4cccs4)C(=O)N[C@@H](CO)C(=O)N4Cc6ccccc6C[C@@H]4C(=O)N(CC(=O)N[C@@H](CCCNC(=N)N)C(=O)O)C4CCCCC4)cc2)C=C[C@H]3[C@H]1C5 [CP 905]	0.501 nM	
CN1CC[C@]23c4c5ccc(O)c4O[C@H]2[C@@H](OCc2ccc(C(=O)N[C@H](CCCNC(=N)N)C(=O)N[C@@H](CCCNC(=N)N)C(=O)N4CCC[C@H]4C(=O)N4C[C@H](O)C[C@H]4C(=O)NCC(=O)N[C@@H](Cc4cccs4)C(=O)N[C@@H](CO)C(=O)N4Cc6ccccc6C[C@@H]4C(=O)N(CC(=O)N[C@@H](CCCNC(=N)N)C(=O)O)C4CCCCC4)cc2)C=C[C@H]3[C@H]1C5 [CP 906]	0.501 nM	
D-Arg-Arg-Pro-Hyp-Gly-Thi-Ser-D-Tic-NChg-Arg [CP-0597]		Percentage inhibition of the carrageenan paw edema, 3 h [1]: 66.3; Percentage inhibition of the carrageenan paw edema, 6 h [1]: 0; effect on carrageenan edema response ([1]; sc): significant inhibition from 0-3 h; effect on first and second phase responses (paw licking time) [2]: no significant effect; effect on mustard oil edema response (Evan's blue dye) [3]: without effect; duration of action against blood pressure responses to bradykinin [4]: greater than 6 h
